Results on 15 compounds are retold here after publication PMC10507793, “Discovery and computational studies of piperidine/piperazine-based compounds endowed with sigma receptor affinity” (RSC Medicinal Chemistry, 2023).

The target in experiment [1] is T1, S1R (Rattus norvegicus, UniProt Q9R0C9). Kind of experiment: S1R radioligand binding assay with [3H](+)-pentazocine. The note with it: for Ki: read-out: Ki ± SD S1R, rat liver homogenates, [3H](+)pentazocine, mean ± SD of at least two experiments in duplicate; for binding to S1R (in words): radioligand binding; for KiS2R/KiS1R ratio: selectivity over S2R.
T1 sequence (Q9R0C9 whole entry): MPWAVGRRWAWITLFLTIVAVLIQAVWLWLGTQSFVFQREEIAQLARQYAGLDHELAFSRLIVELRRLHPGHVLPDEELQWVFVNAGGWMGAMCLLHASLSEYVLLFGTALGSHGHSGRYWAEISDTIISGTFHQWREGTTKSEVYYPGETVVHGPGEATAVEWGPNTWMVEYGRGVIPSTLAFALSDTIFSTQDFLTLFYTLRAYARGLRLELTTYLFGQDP
Experiment [2] addresses T2, S2R (Rattus norvegicus, UniProt Q5U3Y7).
T2 sequence (Q5U3Y7 1-176): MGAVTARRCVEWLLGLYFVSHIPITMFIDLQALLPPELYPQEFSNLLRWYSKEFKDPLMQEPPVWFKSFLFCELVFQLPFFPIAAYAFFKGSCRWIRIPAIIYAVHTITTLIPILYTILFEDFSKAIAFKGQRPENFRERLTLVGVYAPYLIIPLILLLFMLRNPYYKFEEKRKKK
Kind of experiment: S2R radioligand binding assay with [3H]DTG. The note with it: for Ki: read-out: Ki ± SD S2R, rat liver homogenates, [3H]DTG, (+)-pentazocine as S1R masking agent, mean ± SD of at least two experiments in duplicate; for binding to S2R (in words): radioligand binding.

Experiment [3] addresses T1, S1R. Kind of experiment: S1R functional assay (phenytoin method, [3H](+)-pentazocine displacement). Format: binding. Also on record: liver homogenates from male Sprague Dawley rats; from tissue; host or cells: rat liver homogenate (male Sprague Dawley). The note with it: rat liver; for ratio of Ki without phenytoin/with phenytoin: agonist if ratio >1, antagonist if ≤1. The protocol:
Phenytoin is an allosteric modulator for the S1R, and it differentially modulates the affinity of S1R ligands on the basis of their agonist or antagonist profile.[22,23]
The experiments were performed one time in the presence of phenytoin and one time without phenytoin. […] The incubation of samples lasts 120 min at 37 °C. Unlabeled (+)-pentazocine (10 μM) was used to measure non-specific binding.
GraphPad Prism® 7.0 (GraphPad Software, San Diego, CA, USA) program was used to calculate the Ki values that are given as mean value ± SD from at least two independent experiments performed in duplicate.

Experiment [4] deals with S1R. The note with it: co-crystallized ligand; no reference given; read-out: KiS1R; cited from earlier work.

Molecules are shown by their SMILES. Entries after “also recorded” stand apart in the source; their conditions may differ.

In the case of `O=C(CCN1CCC(Cc2ccc(F)cc2)CC1)N1CCN(c2ccc(O)cc2)CC1` [Compound 5], the Ki came out at 434 ± 47 nM in experiment [1] and 610 ± 146 nM in experiment [2].

For `O=C(c1ccccc1)N1CCN(c2ccc(O)cc2)CC1` [Compound 12], in experiment [1], the “binding to S1R (in words)” value was “failed to bind; also recorded: did not bind” and the Ki is > 10000 nM. Besides, in experiment [2], the “binding to S2R (in words)” value is “failed to bind; also recorded: did not bind” and the Ki is > 10000 nM.

With `O=C(CN1CCC(Cc2ccccc2)CC1)N1CCN(c2ccc(O)cc2)CC1` [Compound 2], the results for the Ki in experiment [1] and in experiment [2] were 24 ± 5 nM and 1200 ± 226 nM, respectively. For the same compound, the KiS2R/KiS1R ratio in experiment [1] turned out to be 50.

For `O=C(CCN1CCC(Cc2ccccc2)CC1)N1CCN(c2ccc(O)cc2)CC1` [Compound 4], the Ki in experiment [1] amounted to 328 ± 58 nM; in experiment [2] it was 1000 ± 203 nM.

For the compound `O=C(c1cc2ccccc2o1)N1CCN(Cc2ccc(F)cc2)CC1` [Compound 7], the Ki in experiment [1] is 132 ± 27 nM; in experiment [2], > 10000 nM.

Take `O=C(CCN1CCC(Cc2ccccc2)CC1)N1CCN(c2ccccc2)CC1` [Compound 3]: in experiment [1], the Ki was 8.9 ± 1.3 nM and the KiS2R/KiS1R ratio is 26. Also, the Ki in experiment [2] was 234 ± 43 nM.

Turning to `Cc1ccc(C(=O)N2CCN(Cc3ccc(F)cc3)CC2)o1` [Compound 8], the Ki was 214 ± 29 nM in experiment [1] and > 10000 nM in experiment [2].

Take `O=C(CN1CCC(Cc2ccccc2)CC1)N1CCN(c2ccccc2)CC1` [Compound 1, 2-[4-(benzyl)-1-piperidin-1-yl]-1-4-(4-phenylpiperazin-1-yl)ethanone]: the S1R functional profile result in experiment [3] (phenytoin assay) is given as “S1R agonist”. Also, the “ratio of Ki without phenytoin/with phenytoin” value in experiment [3] is 1.8. In experiment [1], the Ki was 3.2 ± 0.7 nM and the KiS2R/KiS1R ratio stood at 33. Moreover, in experiment [2], the Ki came out at 104 ± 15 nM.

For the compound `O=C(Cc1ccccc1Br)N1CCN(Cc2ccc(F)cc2)CC1` [Compound 10], the Ki in experiment [1] was 366 ± 80 nM; in experiment [2] it was > 10000 nM.

In the case of `C=CCN1CC[C@]2(C)c3cc(O)ccc3C[C@H]1[C@H]2C` [SKF-10 047, reference compound], the “ratio of Ki without phenytoin/with phenytoin” value in experiment [3] worked out at 3.2.

Turning to `O=C(c1ccc(-c2ccccc2)cc1)N1CCN(c2ccc(O)cc2)CC1` [Compound 13], in experiment [1], the “binding to S1R (in words)” value is “failed to bind; also recorded: did not bind” and the Ki was > 10000 nM. Further, in experiment [2], the “binding to S2R (in words)” value is on record as “failed to bind; also recorded: did not bind” and the Ki was > 10000 nM.

`O=C(NC1CCN(Cc2ccccc2)CC1)c1ccc(I)cc1` [4-IBP]: in experiment [4], the Ki was 1.7 nM.

Consider `O=C(C(c1ccccc1)c1ccccc1)N1CCN(Cc2ccc(F)cc2)CC1` [Compound 11], for which the Ki in experiment [1] is 390 ± 77 nM; in experiment [2] it was > 10000 nM.

With `O=C(c1cc2ccccc2s1)N1CCN(Cc2ccc(F)cc2)CC1` [Compound 6], the figures for the Ki in experiment [1] and in experiment [2] were 82 ± 18 nM and > 10000 nM, respectively.

Regarding `O=C(c1ccc([N+](=O)[O-])s1)N1CCN(Cc2ccc(F)cc2)CC1` [Compound 9], the Ki is 309 ± 55 nM in experiment [1] and > 10000 nM in experiment [2].
